From patent US7781591B2, “Substituted 3-cyanopyridines as protein kinase inhibitors” (Wyeth LLC, priority 2006, dated 2010) come the findings set out here.

Test [1] has as its target T1, purified recombinant full length PKC theta (Panvera, P2996) (Homo sapiens, UniProt Q04759).
T1 construct: purified recombinant full length PKC theta (Panvera, P2996); purchased Panvera P2996
The experiment in a line: Radioactive kinase assay for inhibition of full length (FL) PKCθ. The note with it: average value. The class given is biochemical. Here is the method:
This assay is based on the phosphorylation of a biotinylated substrate by a kinase utilizing radiolabeled ATP (ATP γ P33). The substrate was a biotinylated peptide with a sequence of biotin-[…]-C(O)NH2. […] The assay buffer was composed of 100 mM Hepes, pH7.5, 2 mM MgCl2, 20 mM β-glycerophosphate and 0.008% TritonX 100. A reaction mixture of ATP, ATP γ P33 (PerkinElmer), DTT, and the enzyme was prepared in the assay buffer and added to a 96-well polypropylene plate. The compound (diluted in DMSO in a separate 96-well polypropylene plate) was added to the reaction mixture and incubated at room temperature. Following the incubation, the peptide substrate was added to the reaction mixture to initiate the enzymatic reaction. The reaction was terminated with the addition of a stop solution (100 mM EDTA, 0.2% TritonX100, and 20 mM NaHPO4) and transferred from the assay plate to a washed streptavidin-coated 96-well scintiplate (PerkinElmer). […] Counts were recorded for each well as corrected counts per minute (CCPM). The counts were considered corrected because they were adjusted according to a P33 normalization protocol, which corrects for efficiency and background differences between the instrument detectors (software version 4.40.01).
A Radioactive Kinase Assay for Inhibition of Full Length (FL) PKCθ Inhibitors
This assay differs from what was described above in that the enzyme used was purified recombinant full length PKC theta (Panvera, P2996).

The target in test [2] is T2, human PKCθ full length enzyme (Homo sapiens, UniProt Q04759).
T2 construct: human PKCθ full length enzyme (Panvera Cat# P2996); purchased Panvera P2996
T2 sequence (Q04759 whole entry): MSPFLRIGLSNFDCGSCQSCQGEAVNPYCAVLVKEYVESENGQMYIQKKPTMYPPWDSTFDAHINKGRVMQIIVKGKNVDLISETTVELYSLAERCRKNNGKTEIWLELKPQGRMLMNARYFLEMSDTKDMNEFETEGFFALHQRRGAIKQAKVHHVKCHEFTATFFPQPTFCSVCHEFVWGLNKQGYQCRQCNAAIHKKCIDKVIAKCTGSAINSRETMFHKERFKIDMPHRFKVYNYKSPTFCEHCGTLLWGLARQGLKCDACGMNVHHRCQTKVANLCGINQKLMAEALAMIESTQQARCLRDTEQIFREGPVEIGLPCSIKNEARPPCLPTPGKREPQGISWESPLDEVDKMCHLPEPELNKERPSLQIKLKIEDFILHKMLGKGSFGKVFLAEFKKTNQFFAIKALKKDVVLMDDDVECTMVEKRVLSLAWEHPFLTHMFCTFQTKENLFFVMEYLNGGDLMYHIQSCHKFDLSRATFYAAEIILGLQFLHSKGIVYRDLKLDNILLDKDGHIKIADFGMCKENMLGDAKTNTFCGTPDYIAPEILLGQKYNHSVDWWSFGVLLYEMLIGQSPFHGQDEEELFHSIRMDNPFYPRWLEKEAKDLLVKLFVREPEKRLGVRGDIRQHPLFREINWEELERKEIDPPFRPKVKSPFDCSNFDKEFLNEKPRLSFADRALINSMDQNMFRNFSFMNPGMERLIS
The experiment in a line: PKCθ IMAP assay (fluorescence polarization). The class given is biochemical. The note with it: human PKCθ full length enzyme, IMAP; average value; read-out: IC50 PKCθ IMAP. (In fluorescence polarisation assays a small probe gives low polarisation when free and higher when bound to something large.)

Broadly, the IC50 is the concentration needed to halve the response being measured.

T1 sequence (Q04759 whole entry): as above

For `N#Cc1cncc(-c2cccc(-c3cccc(N)c3)c2)c1Nc1ccc2[nH]ccc2c1` [Compound 117, 5-(3′-aminobiphenyl-3-yl)-4-(1H-indol-5-ylamino)nicotinonitrile], the concentration for half-maximal inhibition (IC50) in test [1] is 140 nM.
As to `N#Cc1ccc(-c2cccc(-c3cncc(C#N)c3Nc3ccc4[nH]ccc4c3)c2)cc1` [Compound 118, 5-(4′-cyanobiphenyl-3-yl)-4-(1H-indol-5-ylamino)nicotinonitrile], the half-maximal inhibitory concentration (IC50) in test [1] came to 90 nM.
For the molecule `N#Cc1cncc(-c2cccc(-c3ccncc3)c2)c1Nc1ccc2[nH]ccc2c1` [Compound 121, 4-(1H-indol-5-ylamino)-5-(3-pyridin-4-ylphenyl)nicotinonitrile], in test [1], the IC50 worked out at 170 nM.
Still for that read-out and setting: for `CN(C)C(=O)c1ccc(-c2cccc(-c3cncc(C#N)c3Nc3ccc4[nH]ccc4c3)c2)cc1` [Compound 122, 3′-[5-cyano-4-(1H-indol-5-ylamino)pyridin-3-yl]-N,N-dimethylbiphenyl-4-carboxamide] the value was 340 nM; for `Cc1cccc(-c2cccc(-c3cncc(C#N)c3Nc3ccc4[nH]ccc4c3)c2)c1` [Compound 127, 4-(1H-indol-5-ylamino)-5-(3′-methylbiphenyl-3-yl)nicotinonitrile], 290 nM; for `N#Cc1cncc(-c2cccc(-c3cccc(C(=O)O)c3)c2)c1Nc1ccc2[nH]ccc2c1` [Compound 133, 3′-[5-cyano-4-(1H-indol-5-ylamino)pyridin-3-yl]biphenyl-3-carboxylic acid], 370 nM.
`N#Cc1cncc(-c2cccc(-c3ccc(C(=O)O)cc3)c2)c1Nc1ccc2[nH]ccc2c1` [Compound 134, 3′-[5-cyano-4-(1H-indol-5-ylamino)pyridin-3-yl]biphenyl-4-carboxylic acid]: in test [1], the half-maximal inhibitory concentration (IC50) is 390 nM.
`N#Cc1cncc(-c2cccc(-c3cccnc3)c2)c1Nc1ccc2[nH]ccc2c1` [Compound 137, 4-(1H-indol-5-ylamino)-5-(3-pyridin-3-ylphenyl)nicotinonitrile]: in test [1], the 50% inhibitory concentration (IC50) was determined as 70 nM.
As to `N#Cc1cncc(-c2cccc(-c3ccsc3)c2)c1Nc1ccc2[nH]ccc2c1` [Compound 141, 4-(1H-indol-5-ylamino)-5-[3-(3-thienyl)phenyl]nicotinonitrile], the IC50 in test [1] worked out at 90 nM.
Still for that read-out and setting: the result for `N#Cc1cncc(-c2ccccc2-c2ccccc2Cl)c1Nc1ccc2[nH]ccc2c1` [Compound 143, 5-(2′-chlorobiphenyl-2-yl)-4-(1H-indol-5-ylamino)nicotinonitrile] reads 910 nM.
Turning to `Cc1c(Nc2c(C#N)cncc2-c2ccc(NC(=O)N3CCOCC3)cc2)ccc2[nH]ccc12` [Compound 569, N-(4-{5-cyano-4-[(4-methyl-1H-indol-5-yl)amino]pyridin-3-yl}phenyl)morpholine-4-carboxamide], the IC50 in test [2] was determined as 59 nM.
Still for that read-out and setting: for `Cc1c(Nc2c(C#N)cncc2-c2ccc([N+](=O)[O-])cc2)ccc2[nH]ccc12` [Compound 570, 4-[(4-methyl-1H-indol-5-yl)amino]-5-(4-nitrophenyl)nicotinonitrile] the value was 16 nM; for `Cc1c(Nc2c(C#N)cncc2-c2ccc(N)cc2)ccc2[nH]ccc12` [Compound 571, 5-(4-aminophenyl)-4-[(4-methyl-1H-indol-5-yl)amino]nicotinonitrile], 16 nM; for `Cc1c(Nc2c(C#N)cncc2-c2cccc(N)c2)ccc2[nH]ccc12` [Compound 572, 5-(3-aminophenyl)-4-[(4-methyl-1H-indol-5-yl)amino]nicotinonitrile], 50 nM.
Still for that read-out and setting: for `Cc1c(Nc2c(C#N)cncc2-c2ccccc2N)ccc2[nH]ccc12` [Compound 573, 5-(2-aminophenyl)-4-[(4-methyl-1H-indol-5-yl)amino]nicotinonitrile] the value was 57 nM; for `Cc1c(Nc2c(C#N)cncc2-c2ccc(N(C)C)cc2)ccc2[nH]ccc12` [Compound 574, 5-[4-(dimethylamino)phenyl]-4-[(4-methyl-1H-indol-5-yl)amino]nicotinonitrile], 15 nM.
On the same count and under the same terms, for `Cc1c(Nc2c(C#N)cncc2-c2cccc(N(C)C)c2)ccc2[nH]ccc12` [Compound 575, 5-[3-(dimethylamino)phenyl]-4-[(4-methyl-1H-indol-5-yl)amino]nicotinonitrile] the value was 36 nM; for `CC(=O)Nc1ccc(-c2cncc(C#N)c2Nc2ccc3[nH]ccc3c2C)cc1` [Compound 576, N-(4-{5-cyano-4-[(4-methyl-1H-indol-5-yl)amino]pyridin-3-yl}phenyl)acetamide], 73 nM; for `CC(=O)Nc1ccccc1-c1cncc(C#N)c1Nc1ccc2[nH]ccc2c1C` [Compound 577, N-(2-{5-cyano-4-[(4-methyl-1H-indol-5-yl)amino]pyridin-3-yl}phenyl)acetamide], 36 nM.
Turning to `CC(=O)Nc1cccc(-c2cncc(C#N)c2Nc2ccc3[nH]ccc3c2C)c1` [Compound 578, N-(3-{5-cyano-4-[(4-methyl-1H-indol-5-yl)amino]pyridin-3-yl}phenyl)acetamide], the half-inhibitory concentration (IC50) in test [2] was determined as 97 nM.
Same read-out and setting: the result for `Cc1c(Nc2c(C#N)cncc2-c2ccc(NC(=O)C(C)C)cc2)ccc2[nH]ccc12` [Compound 579, N-(4-{5-cyano-4-[(4-methyl-1H-indol-5-yl)amino]pyridin-3-yl}phenyl)-2-methylpropanamide] reads 4730 nM.
On the same count and under the same terms, for `CNC(=O)c1ccc(-c2cncc(C#N)c2Nc2ccc3[nH]ccc3c2C)cc1` [Compound 580, 4-{5-cyano-4-[(4-methyl-1H-indol-5-yl)amino]pyridin-3-yl}-N-methylbenzamide] the value was 16 nM; for `Cc1c(Nc2c(C#N)cncc2-c2cccc3ccccc23)ccc2[nH]ccc12` [Compound 581, 4-[(4-methyl-1H-indol-5-yl)amino]-5-(1-naphthyl)nicotinonitrile], 23 nM.
The same measure, in the same setting: for `Cc1c(Nc2c(C#N)cncc2-c2ccc3ccccc3c2)ccc2[nH]ccc12` [Compound 582, 4-[(4-methyl-1H-indol-5-yl)amino]-5-(2-naphthyl)nicotinonitrile] the value was 92 nM; for `Cc1c(Nc2c(C#N)cncc2-c2ccnn2C)ccc2[nH]ccc12` [Compound 583, 4-[(4-methyl-1H-indol-5-yl)amino]-5-(1-methyl-1H-pyrazol-5-yl)nicotinonitrile], 61 nM; for `Cc1c(Nc2c(C#N)cncc2-c2cn[nH]c2)ccc2[nH]ccc12` [Compound 584, 4-[(4-methyl-1H-indol-5-yl)amino]-5-(1H-pyrazol-4-yl)nicotinonitrile], 43 nM.
For the molecule `Cc1c(Nc2c(C#N)cncc2-c2csc3ccccc23)ccc2[nH]ccc12` [Compound 585, 5-(1-benzothiophen-3-yl)-4-[(4-methyl-1H-indol-5-yl)amino]nicotinonitrile], in test [2], the IC50 came out at 88 nM.
On the same count and under the same terms, the result for `Cc1c(Nc2c(C#N)cncc2-c2cc3ccccc3n2C)ccc2[nH]ccc12` [Compound 586, 5-(1-methyl-1H-indol-2-yl)-4-[(4-methyl-1H-indol-5-yl)amino]nicotinonitrile] reads 8.7 nM.
Turning to `Cc1c(Nc2c(C#N)cncc2-c2ccc3[nH]ccc3c2)ccc2[nH]ccc12` [Compound 587, 5-(1H-indol-5-yl)-4-[(4-methyl-1H-indol-5-yl)amino]nicotinonitrile], in test [2], the IC50 turned out to be 36 nM.
`Cc1c(Nc2c(C#N)cncc2-c2ccc3cc[nH]c3c2)ccc2[nH]ccc12` [Compound 588, 5-(1H-indol-6-yl)-4-[(4-methyl-1H-indol-5-yl)amino]nicotinonitrile]: in test [2], the 50% inhibitory concentration (IC50) turned out to be 57 nM.
Turning to `Cc1c(Nc2c(C#N)cncc2-c2cnc3ccccc3c2)ccc2[nH]ccc12` [Compound 589, 4-[(4-methyl-1H-indol-5-yl)amino]-5-quinolin-3-ylnicotinonitrile], in test [2], the half-maximal inhibitory concentration (IC50) is 191 nM.
On the same count and under the same terms, for `Cc1c(Nc2c(C#N)cncc2-c2cccc3cccnc23)ccc2[nH]ccc12` [Compound 590, 4-[(4-methyl-1H-indol-5-yl)amino]-5-quinolin-8-ylnicotinonitrile] the value was 972 nM.
Same read-out and setting: for `Cc1c(Nc2c(C#N)cncc2-c2ccc3occc3c2)ccc2[nH]ccc12` [Compound 591, 5-(1-benzofuran-5-yl)-4-[(4-methyl-1H-indol-5-yl)amino]nicotinonitrile] the value was 19.7 nM; for `Cc1c(Nc2c(C#N)cncc2-c2cccc3ncccc23)ccc2[nH]ccc12` [Compound 592, 4-(4-methyl-1H-indol-5-ylamino)-5-(quinolin-5-yl)nicotinonitrile], 6.9 nM; for `Cc1c(Nc2c(C#N)cncc2-c2ccc3c(c2)sc2ccccc23)ccc2[nH]ccc12` [Compound 593, 5-(dibenzo[b,d]thiophen-3-yl)-4-(4-methyl-1H-indol-5-ylamino)nicotinonitrile], 120 nM.
`Cc1c(Nc2c(C#N)cncc2-c2ccc3sccc3c2)ccc2[nH]ccc12` [Compound 594, 5-(benzo[b]thiophen-5-yl)-4-(4-methyl-1H-indol-5-ylamino)nicotinonitrile]: the concentration for half-maximal inhibition (IC50) in test [2] amounted to 38 nM.
Still for that read-out and setting: for `Cc1c(Nc2c(C#N)cncc2-c2cccc3[nH]ccc23)ccc2[nH]ccc12` [Compound 595, 5-(1H-indol-4-yl)-4-(4-methyl-1H-indol-5-ylamino)nicotinonitrile] the value was 46 nM.
